Laboratory results: patent US11325899B2, “Benzofurane and benzothiophene derivatives as PGE2 receptor modulators” (IDORSIA PHARMACEUTICALS LTD, priority 2017, dated 2022)

Columns and labels:
Format in all cases: cell-based
PTGER2 (EP2) = biological target: T1, PTGER2 (EP2) (Homo sapiens, UniProt P43116); test: hEP2 b-arrestin assay (PathHunter HEK 293 PTGER2 b-arrestin cells); conditions: antagonistic activity, beta-arrestin assay; read-out: hEP2 b-arr IC50
T1 construct: host or cells: HEK 293 (PathHunter PTGER2 b-arrestin cell line)
T1 sequence (P43116 whole entry): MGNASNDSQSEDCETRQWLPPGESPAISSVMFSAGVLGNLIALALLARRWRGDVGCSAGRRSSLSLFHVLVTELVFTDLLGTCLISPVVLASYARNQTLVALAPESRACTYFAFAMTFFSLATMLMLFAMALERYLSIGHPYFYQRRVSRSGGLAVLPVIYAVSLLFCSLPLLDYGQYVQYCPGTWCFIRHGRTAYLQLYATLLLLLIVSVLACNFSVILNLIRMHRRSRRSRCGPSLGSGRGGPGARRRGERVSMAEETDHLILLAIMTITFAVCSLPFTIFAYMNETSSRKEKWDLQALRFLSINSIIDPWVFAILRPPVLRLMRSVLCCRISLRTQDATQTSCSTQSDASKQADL
How it was run: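 PathHunter HEK293 cells with ProLink-tagged EP2 and EA-β-arrestin 2 preincubated 15 min at 37 °C with compound (10 μM-2 nM or 1 μM-0.2 nM), then stimulated 120 min with 5 μM PGE2 (EC80). β-gal complementation read by chemiluminescence; IC50 from duplicate dose-response versus DMSO.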

PTGER4 (EP4) = biological target: T2, PTGER4 (EP4) (Homo sapiens, UniProt P35408); test: hEP4 b-arrestin assay (PathHunter HEK 293 PTGER4 b-arrestin cells); conditions: antagonistic activity, beta-arrestin assay; read-out: hEP4 b-arr IC50
T2 construct: host or cells: HEK 293 (PathHunter PTGER4 b-arrestin cell line)
T2 sequence (P35408 whole entry): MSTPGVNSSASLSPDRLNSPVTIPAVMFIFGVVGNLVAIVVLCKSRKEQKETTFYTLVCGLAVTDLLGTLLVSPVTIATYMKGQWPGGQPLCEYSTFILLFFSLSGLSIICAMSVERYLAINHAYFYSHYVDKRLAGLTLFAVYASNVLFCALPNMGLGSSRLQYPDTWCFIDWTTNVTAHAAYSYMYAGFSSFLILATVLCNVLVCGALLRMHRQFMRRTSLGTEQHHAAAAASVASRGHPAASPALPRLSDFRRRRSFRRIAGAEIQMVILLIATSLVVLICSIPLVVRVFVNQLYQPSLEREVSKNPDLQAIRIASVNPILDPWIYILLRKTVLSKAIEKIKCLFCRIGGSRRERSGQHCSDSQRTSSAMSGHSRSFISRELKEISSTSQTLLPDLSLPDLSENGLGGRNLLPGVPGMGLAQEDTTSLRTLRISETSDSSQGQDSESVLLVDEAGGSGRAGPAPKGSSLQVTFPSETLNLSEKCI
How it was run: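 PathHunter HEK 293 cells expressing ProLink-tagged human EP4 and EA-β-arrestin 2, seeded 24 h before. Compounds (10 μM–2 nM or 1 μM–0.2 nM) preincubated 15 min at 37 °C, then 20 nM PGE2 (EC80) for 120 min at 37 °C. β-gal complementation luminescence read; IC50 from duplicate dose-response curves versus DMSO control.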

EP2 receptor = biological target: T3, EP2 receptor (Homo sapiens, UniProt P43116); test: hEP2 cAMP assay (SF295 glioblastoma cells, HTRF cAMP, PGE2 stimulation); conditions: antagonistic activity
T3 construct: SF295 glioblastoma cells express high endogenous EP2 and no EP4; host or cells: SF295 glioblastoma cells
T3 sequence (P43116 whole entry): as the sequence (P43116 whole entry) above
How it was run: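 SF295 glioblastoma cells with endogenous EP2 and no EP4, in HBSS/HEPES/BSA with 2 mM IBMX, pre-incubated 45 min at room temperature with compound, then stimulated 30 min with 75 nM PGE2 (EC80). cAMP measured by HTRF; IC50 fitted from duplicate % cAMP versus DMSO control.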

Row | IC50 (PTGER2 (EP2)) | IC50 (PTGER4 (EP4)) | IC50 (EP2 receptor) | SMILES
1 | 6 nM | 12 nM | 6 nM | CCOc1cc(-c2cc(NCCc3c(C)oc4c(OC)ccc(F)c34)ncn2)sc1C(=O)O [Example 34, 3-Ethoxy-5-{6-[2-(4-fluoro-7-methoxy-2-methyl-benzofuran-3-yl)-ethylamino]-pyrimidin-4-yl}-thiophene-2-carboxylic acid]
2 | 3 nM | 35 nM | 2 nM | CCOc1cc(-c2cc(NCCc3c(C)oc4c(Cl)cccc34)ncn2)sc1C(=O)O [Example 35, 5-{6-[2-(7-Chloro-2-methyl-benzofuran-3-yl)-ethylamino]-pyrimidin-4-yl}-3-ethoxy-thiophene-2-carboxylic acid]
3 | 1 nM | 26 nM | 4 nM | CCOc1cc(-c2cc(NCCc3c(C)sc4c(C)cccc34)ncn2)sc1C(=O)O [Example 36, 5-{6-[2-(2,7-Dimethyl-benzo[b]thiophen-3-yl)-ethylamino]-pyrimidin-4-yl}-3-ethoxy-thiophene-2-carboxylic acid]
4 | 2 nM | 42 nM | 2 nM | CCOc1cc(-c2cc(NCCc3c(C)oc4c(C)cc(F)cc34)ncn2)sc1C(=O)O [Example 37, 3-Ethoxy-5-{6-[2-(5-fluoro-2,7-dimethyl-benzofuran-3-yl)-ethylamino]-pyrimidin-4-yl}-thiophene-2-carboxylic acid]
5 | 9 nM | 12 nM | 12 nM | CCOc1cc(-c2cc(NCCc3c(C)oc4c(OC)cc(Cl)cc34)ncn2)sc1C(=O)O [Example 38, 5-{6-[2-(5-Chloro-7-methoxy-2-methyl-benzofuran-3-yl)-ethylamino]-pyrimidin-4-yl}-3-ethoxy-thiophene-2-carboxylic acid]
6 | 31 nM | 50 nM | 28 nM | CCOc1cc(-c2cc(NCCc3c(CC)oc4c(C)cc(F)cc34)ncn2)sc1C(=O)O [Example 39, 3-Ethoxy-5-{6-[2-(2-ethyl-5-fluoro-7-methyl-benzofuran-3-yl)-ethylamino]-pyrimidin-4-yl}-thiophene-2-carboxylic acid]
7 | 48 nM | 680 nM | 94 nM | COc1cc(-c2cc(NCCc3c(C)sc4c(OC)ccc(Cl)c34)ncn2)ccc1C(=O)O [Example 40, 4-{6-[2-(4-Chloro-7-methoxy-2-methyl-benzo[b]thiophen-3-yl)-ethylamino]-pyrimidin-4-yl}-2-methoxy-benzoic acid]
8 | 4 nM | 328 nM | 14 nM | CCSc1cc(-c2cc(NCCc3c(C)sc4c(C)cccc34)ncn2)ccc1C(=O)O [Example 42, 4-{6-[2-(2,7-Dimethyl-benzo[b]thiophen-3-yl)-ethylamino]-pyrimidin-4-yl}-2-ethylsulfanyl-benzoic acid]
9 | 3 nM | 1080 nM | 4 nM | CCSc1cc(-c2cc(NCCc3c(C)sc4ccccc34)ncn2)ccc1C(=O)O [Example 43, 2-Ethylsulfanyl-4-{6-[2-(2-methyl-benzo[b]thiophen-3-yl)-ethylamino]-pyrimidin-4-yl}-benzoic acid]
10 | 1 nM | 1020 nM | 4 nM | CCSc1cc(-c2cc(NCCc3c(C)oc4ccccc34)ncn2)ccc1C(=O)O [Example 44, 2-Ethylsulfanyl-4-{6-[2-(2-methyl-benzofuran-3-yl)-ethylamino]-pyrimidin-4-yl}-benzoic acid]
11 | 20 nM | 57 nM | 48 nM | CCCc1cc(-c2cc(NCCc3c(C)sc4c(C)cc(F)cc34)ncn2)ccc1C(=O)O [Example 45, 4-{6-[2-(5-Fluoro-2,7-dimethyl-benzo[b]thiophen-3-yl)-ethylamino]-pyrimidin-4-yl}-2-propyl-benzoic acid]
12 | 46 nM | 93 nM | 31 nM | Cc1sc2c(C)cc(F)cc2c1CCNc1cc(-c2cc(C(F)(F)F)c(C(=O)O)s2)ncn1 [Example 46, 5-{6-[2-(5-Fluoro-2,7-dimethyl-benzo[b]thiophen-3-yl)-ethylamino]-pyrimidin-4-yl}-3-trifluoromethyl-thiophene-2-carboxylic acid]
13 | 10 nM | 807 nM | 12 nM | CSc1cc(-c2cc(NCCc3c(C)sc4c(C)cccc34)ncn2)cc(F)c1C(=O)O [Example 47, 4-{6-[2-(2,7-Dimethyl-benzo[b]thiophen-3-yl)-ethylamino]-pyrimidin-4-yl}-2-fluoro-6-methylsulfanyl-benzoic acid]
14 | 18 nM | 432 nM | 13 nM | CSc1cc(-c2cc(NCCc3c(C)sc4c(C)cccc34)ncn2)cc(Cl)c1C(=O)O [Example 50, 2-Chloro-4-{6-[2-(2,7-dimethyl-benzo[b]thiophen-3-yl)-ethylamino]-pyrimidin-4-yl}-6-methylsulfanyl-benzoic acid]
15 | 46 nM | 133 nM | 95 nM | CCOc1cc(-c2cc(NCCc3c(C)sc4c(C)cc(F)cc34)ncn2)sc1CC(=O)O [Example 52, (3-Ethoxy-5-{6-[2-(5-fluoro-2,7-dimethyl-benzo[b]thiophen-3-yl)-ethylamino]-pyrimidin-4-yl}-thiophen-2-yl)-acetic acid]
16 | 9 nM | 34 nM | 7 nM | CCOc1cc(-c2cc(NCCc3c(C#N)sc4c(C)cc(F)cc34)ncn2)ccc1C(=O)O [Example 53, 4-{6-[2-(2-Cyano-5-fluoro-7-methyl-benzo[b]thiophen-3-yl)-ethylamino]-pyrimidin-4-yl}-2-ethoxy-benzoic acid]
17 | 194 nM | 60 nM | 77 nM | CCOc1cc(-c2cc(NCCc3c(C#N)sc4c(OC)cccc34)ncn2)ccc1C(=O)O [Example 54, 4-{6-[2-(2-Cyano-7-methoxy-benzo[b]thiophen-3-yl)-ethylamino]-pyrimidin-4-yl}-2-ethoxy-benzoic acid]
18 | 15 nM | 117 nM | 40 nM | CCOc1cc(-c2cc(NCCc3c(C)sc4c(OC)ccc(F)c34)ncn2)ccc1C(=O)O [Example 55, 2-Ethoxy-4-{6-[2-(4-fluoro-7-methoxy-2-methyl-benzo[b]thiophen-3-yl)-ethylamino]-pyrimidin-4-yl}-benzoic acid]
19 | 13 nM | 47 nM | 19 nM | CCOc1cc(-c2cc(NCCc3c(C)sc4c(C)cc(F)cc34)ncn2)ccc1C(=O)O [Example 56, 2-Ethoxy-4-{6-[2-(5-fluoro-2,7-dimethyl-benzo[b]thiophen-3-yl)-ethylamino]-pyrimidin-4-yl}-benzoic acid]
20 | 17 nM | 287 nM | 44 nM | CCOc1cc(-c2cc(NCCc3c(C)sc4c(OC)ccc(Cl)c34)ncn2)ccc1C(=O)O [Example 57, 4-{6-[2-(4-Chloro-7-methoxy-2-methyl-benzo[b]thiophen-3-yl)-ethylamino]-pyrimidin-4-yl}-2-ethoxy-benzoic acid]
21 | 12 nM | 454 nM | 17 nM | CCOc1cc(-c2cc(NCCc3c(Br)sc4c(C)cc(F)cc34)ncn2)ccc1C(=O)O [Example 58, 4-{6-[2-(2-Bromo-5-fluoro-7-methyl-benzo[b]thiophen-3-yl)-ethylamino]-pyrimidin-4-yl}-2-ethoxy-benzoic acid]
